Consider two compounds from US20060293381A1, “Fungicidal effect by regulating signal transduction pathways” (priority 2005, published 2006).

Entries after “also recorded” stand apart in the source; their conditions may differ. Where two headings read alike, the source gives them in different places.

Experiment [1] relates to C. neoformans. The experiment is described as follows: Glycerol content in cell extracts (UV-glycerol assay). In kind it is cell-based, Cryptococcus neoformans. The method, then:
(§1) FIG. 6: [A] Measurements of morphological changes in response to fludioxonil treatment (10 ug ml^−1 for 48 hours) in serotype A H99 WT [A-b], cna1Δ [A-c], and hog1Δ [A-d]. As a control, serotype A H99 WT was grown without fludioxonil [A-a]. Cells were then observed by microscopy (bar=20 um). [B] Measurements of glycerol content in cell extracts in response to fludioxonil treatment in serotype A WT strain H99, cna1Δ, hog1Δ, and the serotype D WT strain JEC21. Cells were grown to mid-exponential phase and then incubated in 10 ug fludioxonil ml^−1 for the time indicated. Glycerol content in cell extracts was measured by a UV-glycerol assay procedure and normalized to dry cell weight. Two individual experiments were performed and standard deviations are presented as error bars.
We measured the glycerol content in C. neoformans after fludioxonil treatment for 1 and 3 hours (FIG. 6B). […] Increased intracellular glycerol levels may trigger non-physiological levels of water influx into the cell, resulting in cell swelling and growth inhibition. […] Alternatively, the cna1Δ mutant cells could be rapidly killed by Hog1 activation prior to accumulating glycerol, because fludioxonil has a fungicidal effect on the cna1Δ mutant (Table 1).

Experiment [2] deals with C. neoformans. In kind it is cell-based, Cryptococcus neoformans. As for the experimental part: (§2) FIG. 1: [A] Treatment of multiple strains of C. neoformans serotype A H99 with fludioxonil (1 ug ml^−1 and 10 ug ml^−1), calcineurin inhibitor FK506, and FK506+Fludioxonil (1 ug ml^−1). [B] Measurement of cell density of multiple strains of C. neoformans representing relative cell growth after incubation of C. neoformans in culture for 72 hours in various fludioxonil concentrations. The following serotype A strains were used for this assay: WT (H99) (♦), and cna1Δ (▴), hog1Δ (□) and cna1Δ hog1Δ (∘) mutant strains. [C] Measurement of WT H99, hog1Δ, and cna1Δ mutants grown for 48 hours exposed to disks containing 10 ug (Fludiox10), 50 ug (Fludiox50), or 100 ug (Fludiox100) of fludioxonil; 2 ug (FK5062) or 20 ug (FK50620) of FK506; 5 ul of 100% ethanol (ETOH) and dimethyl sulfoxide (DMSO).
Additionally, the fractional inhibitory concentration (FIC) was calculated to determine the FIC index, of which a value <1·0 denotes a synergistic interaction.

In experiment [3] the test system is C. neoformans. The experiment is described as follows: Microscopic observation of cell morphology after fludioxonil. In kind it is cell-based, Cryptococcus neoformans. The method, then: as §1
We microscopically observed cells after exposure to fludioxonil. […] As expected, the morphology of JEC21 cells was not affected by fludioxonil.

Another experiment relates to S. cerevisiae. The experiment is described as follows: Fungal growth on agar containing fludioxonil (control species). In kind it is cell-based. As for the experimental part: FIG. 2: Differential fungicidal sensitivity between C. neoformans serotype A strain H99 and serotype D strain JEC21. WT indicates wildtype cells; hog1 indicates a mutant Hog1 gene hog1Δ. S. cerevisiae is used as a control.
(§3) Two C. neoformans serotypes were tested for sensitivity to fludioxonil at 1 μg/ml and 10 μg/ml to determine whether fludioxonil sensitivity is differentially regulated between the two strains and if it is controlled by the HOG pathway. […] S. cerevisiae is resistant to fludioxonil and was used as a control. Thus differential sensitivity to fludioxonil was seen between the two WT serotypes. The hog1Δ mutation in the serotype D strain JEC21 was resistant to fludioxonil, similar to WT JEC21 (FIG. 2). The hog1Δ mutation in the serotype A strain H99 background, however, was resistant to fludioxonil, unlike WT H99 (FIG. 2). This indicates a critical role for the Hog1 pathway in fludioxonil sensitivity.

In experiment [4] the test system is C. neoformans. The experiment is described as follows: Minimal fungicidal concentration (MFC), NCCLS criteria. In kind it is cell-based. The conditions noted are these: Cryptococcus neoformans; WT strain; fludioxonil alone. An excerpt:
To determine whether fludioxonil is fungicidal or fungistatic to C. neoformans, minimal fungicidal concentrations (MFCs) were investigated in accordance with the NCCLS criteria (Table 2).

Experiment [5] deals with C. neoformans. The experiment is described as follows: Fungal growth on YPD agar containing the drug. Type of experiment: cell-based, Cryptococcus neoformans. As for the experimental part:
To investigate whether C. neoformans is sensitive to fludioxonil, fungal growth was tested on YPD agar containing the drug. […] To elucidate the role of the HOG pathway in fludioxonil sensitivity, we tested the sensitivity of hog1Δ and pbs2Δ mutants that had been constructed before (Y S Bahn et al., Mol. Biol. Cell. (2005) 16: 2285-2300). […] To examine whether phosphorylation and kinase activity of Hog1 MAPK are required to confer fludioxonil sensitivity, we tested the sensitivity of cells expressing site-directed mutants of Hog1 at the phosphorylation sites (hog1+HOG1^T171A+Y173A) or the catalytic site (hog1+HOG1^K49S+K50N) (FIG. 1A).
as §3
To determine whether the differential fludioxonil sensitivity observed between the serotype A strain H99 and the serotype D strain JEC21 results from serotype- or strain-specific differences, fludioxonil sensitivity in multiple serotype A and D clinical and environmental strains was investigated. The Hog1 phosphorylation pattern after a 1 hour exposure to fludioxonil was monitored.

For a further experiment, the system named is Hog1 MAPK. The experiment is described as follows: Hog1 phosphorylation pattern by Western Blot. In kind it is cell-based, Cryptococcus neoformans. The text has this:
(§4) FIG. 3: Measurements of Hog1 MAPK activation by rapid dephosphorylation in response to fludioxonil in C. neoformans. Measurements of phosphorylated Hog1 (P-Hog1) and unphosphorylated Hog1 (Hog1) are shown in C. neoformans serotype A strain H99 (H99 WT), H99 cna1Δ, serotype D strain JEC21 (JEC21 WT), and S. cerevisiae. The dual phosphorylation status of Hog1 (T171 and Y173) was monitored using antibody specific for dual phosphorylation of p38 MAPK (P-Hog1). The same blot was stripped and then probed with polyclonal anti-Hog1 antibody as a loading control (Hog1).
FIG. 4: Measurements of fludioxonil sensitivity and Hog1 phosphorylation patterns in response to fludioxonil in various clinical and environmental serotype A [A] and serotype D [B] isolates. Measurements of phosphorylated Hog1 (P-Hog1) and unphosphorylated Hog1 (Hog1) were done using Western Blot analysis.
(§5) To determine how Hog1 is regulated in response to fludioxonil in C. neoformans, Hog1 phosphorylation patterns were monitored by Western Blot analysis in response to fludioxonil. When the serotype A strain H99 was exposed to 1 or 10 ug ml^−1 fludioxonil ml^−1, Hog1 was dephosphorylated within 15 minutes and its dephosphorylation status was maintained for 3 hours (FIG. 3). […] On the other hand, in the serotype D strain JEC21 Hog1 was only slightly phosphorylated under normal conditions, only minimally further phosphorylated if at all after 15 minutes of exposure to fludioxonil, and subsequently maintained in an unphosphorylated state for up to 3 hours (FIG. 3). In contrast, Hog1 was rapidly phosphorylated in response to osmotic shock in strain JEC21.
For orientation: A western blot detects proteins with antibodies after separation by electrophoresis.

The test system of experiment [6] is C. neoformans. The experiment is described as follows: NCCLS drug susceptibility assay in liquid medium (MIC80, FIC index, cell density). In kind it is cell-based, Cryptococcus neoformans. As for the experimental part:
as §2
To quantitatively measure fludioxonil sensitivity, we performed drug susceptibility assays according to NCCLS criteria using a range of fludioxonil concentrations (5 ng ml^−1 to 10 ug ml^−1) to determine the minimum inhibitory concentration (MIC). In this assay, the MIC80 of fludioxonil for the WT strain was <5 ug ml^−1 whereas the MIC80 for the cna1Δ mutant was <100 ng ml^−1 (FIG. 1B and Table 1).

Another experiment deals with Hog1. Nature of the experiment: Hog1 phosphorylation pattern by Western Blot. Conditions: S. cerevisiae. Type of experiment: cell-based.
Source text: as §4, §5

Setting [7] is: WT strain H99, fludioxonil disk 100 ug.
Setting [8] is: serotype A strain H99, 1 or 10 ug ml^−1 fludioxonil.

For `N#Cc1c[nH]cc1-c1cccc2c1OC(F)(F)O2` [fludioxonil, 4-(2,2-difluoro-1,3-benzodioxol-4-yl)pyrrole-3-carbonitrile], the glycerol content entry was “increased after 1 hour exposure, and to an even greater extent after 3 hour incubation” in the experiment on C. neoformans [1] (WT strain H99, 10 ug fludioxonil ml^−1, 1 and 3 hours); “increased following 1 hour treatment with fludioxonil but accumulation levels at 3 hours were lower than those of the WT” with C. neoformans [1] (cna1Δ mutant, 10 ug fludioxonil ml^−1, 1 and 3 hours); “no increase in glycerol” in the experiment on C. neoformans [1] (hog1Δ mutant, 10 ug fludioxonil ml^−1, 1 and 3 hours); “little or no glycerol” in the experiment with C. neoformans [1] (serotype D strain JEC21, 10 ug fludioxonil ml^−1). The “halo / growth inhibition around disk” value in the experiment with C. neoformans [2] (setting [7]) is “only modest growth inhibition”; in the experiment on C. neoformans [2] (cna1Δ strain, disks with 10, 50, or 100 ug fludioxonil) it was “large haloes”. The cell morphology entry is “not affected” in the experiment with C. neoformans [3] (JEC21 cells); “some cells were swollen, and interestingly were often attached to each other” with C. neoformans [3] (WT H99, 10 ug ml^−1 for 48 hours); “even more severe cytokinesis defect” in the experiment on C. neoformans [3] (cna1Δ mutant, 10 ug ml^−1 for 48 hours); “no swollen morphology or defects in cell division” in the experiment with C. neoformans [3] (hog1Δ mutant, 10 ug ml^−1 for 48 hours). The “growth on agar containing drug” value in the experiment on S. cerevisiae was “resistant”; in the experiment with C. neoformans [5] (WT serotype D strain JEC21, 1 μg/ml and 10 μg/ml), “complete resistance”; with C. neoformans [5] (cna1Δ and cnb1Δ mutants (H99 background)), “hypersensitivity”; with C. neoformans [5] (hog1+HOG1^T171A+Y173A and hog1+HOG1^K49S+K50N site-directed mutants), “as resistant to fludioxonil as the hog1Δ mutant”; in the experiment on C. neoformans [5] (hog1Δ mutant (H99 background)) it was “complete resistance; also recorded: resistant”; in the experiment on C. neoformans [5] (hog1Δ mutation in serotype D strain JEC21), “resistant”. For the same compound, the “growth on agar containing drug” value with C. neoformans [5] (pbs2Δ mutant (H99 background)) was “complete resistance”; in the experiment on C. neoformans [5] (serotype A wild-type (WT) strain H99, fludioxonil 1 and 10 ug ml^−1) it was “severely inhibited growth; also recorded: sensitivity”. This compound also came in with an MFC in the experiment on C. neoformans [4] greater than 10 µg/mL. Besides, the fludioxonil sensitivity entry is on record as “resistance similar to the parental strain JEC171” in the experiment on C. neoformans [5] (12 independently derived AD hybrid strains); “hypersensitivity” in the experiment on C. neoformans [5] (mpk1Δ mutant); “hypersensitivity” in the experiment on C. neoformans [5] (mutants lacking MKK1 and BCK1 genes); “sensitivity” in the experiment with C. neoformans [5] (parental serotype A H99 (ura5)); “resistance” in the experiment with C. neoformans [5] (parental serotype D JEC171 (ade2 lys2)); “clear resistance” in the experiment with C. neoformans [5] (serotype A strains IN-38 and UG-20020, serotype D strains NIH433, JEC21, MMRL757). In addition, the “growth defect in response to fludioxonil with osmotic stabilizer” value in the experiment with C. neoformans [5] (mpk1Δ, mkk1Δ, bck1Δ mutants, supplementation with 1M sorbitol) is reported as “partially rescued the growth defect”. For the same compound, the “strains sensitive to fludioxonil” value with C. neoformans [5] (serotype A clinical and environmental strains) is given as 8 of 10; in the experiment on C. neoformans [5] (serotype D clinical and environmental strains) it was 6 of 9. In the experiment with Hog1 MAPK (cna1Δ mutant, 1 ug or 10 ug fludioxonil ml^−1), the Hog1 phosphorylation pattern entry is given as “almost identical to that observed in the wild-type strain”. Moreover, the “Hog1 activation in response to fludioxonil” value was “not activated” in the experiment on Hog1 MAPK (resistant clinical/environmental strains, 1 hour incubation); “only minimally activated, if at all” with Hog1 MAPK (serotype D strain JEC21); “completely inactive” in the experiment with Hog1. In addition, in the experiment on Hog1 MAPK (setting [8]), the “Hog1 dephosphorylation status maintained” value came to 3 h. Moreover, the “time to Hog1 dephosphorylation” value in the experiment with Hog1 MAPK (setting [8]) is no more than 15 min. The MIC80 is less than 5 µg/mL in the experiment with C. neoformans [6] (Cryptococcus neoformans, WT strain, read-out: MIC80) and less than 0.1 µg/mL with C. neoformans [6] (cna1Δ mutant). For the same compound, the “fludioxonil sensitivity (cell growth, FIG. 1B)” value with C. neoformans [6] (cna1Δ hog1Δ double mutant) is “complete resistance”. Besides, in the experiment on C. neoformans [6] (hog1Δ and cna1Δ hog1Δ mutants, even with 10 ug fludioxonil ml^−1), the “growth in liquid culture” value was “modest reduction of growth, but still showed robust resistance”.
As for `C=CC[C@@H]1/C=C(\C)C[C@H](C)C[C@H](OC)[C@H]2O[C@@](O)(C(=O)C(=O)N3CCCC[C@H]3C(=O)O[C@H](/C(C)=C/[C@@H]3CC[C@@H](O)[C@H](OC)C3)[C@H](C)[C@@H](O)CC1=O)[C@H](C)C[C@@H]2OC` [FK506], in the experiment with C. neoformans [2] (setting [7]), the “halo / growth inhibition around disk” value was “not inhibited”.

The term MFC denotes the smallest concentration meeting the test's criterion for killing the fungus. The low end stands for more potent killing, the high end for less potent killing. The term MIC80 denotes an inhibitory concentration at the 80% level, which refers to growth in some studies and to a panel of isolates in others.
